Read-outs that look alike come from different tables or passages of the source.
Tests used:
interleukin-2 (IL-2) = assay: Inhibition of interleukin-2 release in Jurkat T cells, ELISA; assay type: cell-based, human; conditions: Jurkat T cells stimulated with PMA and PHA, 18 h
Procedure: Human E6.1 Jurkat T cells were cultured in RPMI-1640 with 10% fetal bovine serum (FBS), 2 mM I-glutamine, and 1 mM Na-pyruvate. After serum starvation for 7 h, Jurkat cells were plated in 96 well culture plates at 1.25×10^5 cells/mL in RPMI-1640 (without phenol red) with 10% FBS. Cells were treated with phorbol 12-myristate 13-acetate (PMA, 1.25 ng/mL) and phytohemaglutinin (PHA, 0.25 μg/mL) to stimulate secretion of IL-2. Testing compound or DMSO vehicle was added to appropriate wells. […] Plates were then incubated for 18 h. Cell supernatants were collected (100 μL) and assayed for interleukin-2 (IL-2) by ELISA (Human IL-2 ELISA Kit, available from BD Biosciences, San Jose, Calif.). All test conditions were assayed in triplicate and verified with repeated experiments three times.

HIF-1 [1] = assay: ODD-Luc assay (luciferase reporter) for HIF-1 inhibitory activity; assay type: cell-based, mouse; conditions: read-out: HIF-1 inhibitory activity IC50; 4T1-ODD-Luc cells, 240 μM CoCl2, compounds 24 h
Procedure: The HIF-1 inhibitory of compound 1, 18, and the anti-diol diastereomer 22 were assessed with the ODD-Luc assay (Li, F.; Sonveaux, P.; Rabbani, Z. N.; Liu, S.; Yan, B.; Huang, Q.; Vujaskovic, Z.; Dewhirst, M. W.; Li, C. Y. Mol. Cell 2007, 26, 63-74, which is incorporated by reference). 4T1-ODD-Luc cells, stably transfected with the oxygen-dependent-degradation (ODD) domain of HIF-1α and a firefly luciferase reporter, were seeded in the 24-well plate at a density of 10^5 cells/well. After 16-hour incubation, cells were treated with 240 μM of Cobalt (II) Chloride (Sigma-Aldrich, St. Louis, Mo., USA) and serially diluted compounds for 24 h. To measure the luciferase signals, luciferin (150 mg/mL) was added and the plates were imaged using the Xenogen IVIS imaging system and associated Living Image software (Xenogen, Alameda, Calif.). Luciferase expression/activity was detected and quantified as relative light units (RLUs). Results are means±SD, n=3.
To determine HIF-1 inhibitory activity of 31 and 33, a luciferase-reporter based assay was used as a primary screen. […] Luciferase signals were detected and quantified as relative light units (RLUs).

Athymic Nude mouse = assay: Non-tumored animal toxicity assay, single dose; assay type: in vivo; conditions: for Death Days / Survivors/Total at day 15: single dose
Procedure: All treatment was administered according to exact body weight. A single Athymic Nude mouse was given a single injection (IP) of 400 mg/kg; a second mouse received a dose of 200 mg/kg, and a third mouse received a single dose of 100 mg/kg. […] They were sacrificed if they lost more than 20% of their body weight or if there were other signs of significant toxicity. […] This process was repeated until a tolerated dose was found. This dose was then designated the maximum tolerated dose (MTD). The mice were allowed ad libitum feed and water. Injections were administered IP. Dose volumes were generally 0.1 mL/10 grams body weight but may be up to 0.2 mL/10 grams of body weight.

VEGF = assay: HIF-1 regulated VEGF secretion, ELISA; assay type: cell-based, mouse; conditions: 4T1 cells, hypoxia 0.5% O2, 24 h
Text: Vascular endothelial growth factor (VEGF) is a gene that is highly involved in tumor progression as a pro-angiogenic factor.

HIF-1α = assay: Western blot of nuclear extracts, HIF-1α expression in MDA-MB-231 cells; assay type: cell-based, human
HIF-1 [2] = conditions: T47D cells, 10 μM 1,10-phenanthroline, 16 h; cited from earlier work
4T1 cells = conditions: 24 h, highest concentration examined 10 μM
Procedure: Like MTT (3-(4,5-d imethylthiazol-2-yl)-2,5-diphenyltetrazolium bromide, a tetrazole), MTS was reduced into a formazan product by living cells in the presence of an electron coupling reagent (phenazine methosulfate, PMS). The absorbance of the formazan was detected at 490 nm. […] Then cells were washed and incubated another three hours with cell medium containing MTS/PMS solution at 37° C. (21% O2, 5% CO2). Relative cell survival rate was determined on the O.D. values measured at 490 nm.

HIF-1α protein = assay: Western blot of nuclear extracts, HIF-1α expression in 4T1 cells; assay type: cell-based, mouse
[3] = tested on: 60 different human tumor cell lines; assay: NCI-60 DTP Human Tumor Cell Line Screen; assay type: cell-based
Procedure: The NCI-60 DTP Human Tumor Cell Line Screen utilized 60 different human tumor cell lines, representing leukemia, melanoma, and cancers of the lung, colon, brain, ovary, breast, prostate, and kidney. The screening was a two-stage process.
The human tumor cell lines of the cancer screening panel were grown in RPMI 1640 medium containing 5% fetal bovine serum and 2 mM L-glutamine. For a typical screening experiment, cells were inoculated into 96 well microtiter plates in 100 μL at plating densities ranging from 5,000 to 40,000 cells/well depending on the doubling time of individual cell lines.
After 24 h, two plates of each cell line were fixed in situ with TCA, to represent a measurement of the cell population for each cell line at the time of drug addition (Tz). […] At the time of drug addition, an aliquot of frozen concentrate was thawed and diluted to twice the desired final maximum test concentration with complete medium containing 50 μg/mL gentamicin. Additional four, 10-fold, or ½ log serial dilutions were made to provide a total of five drug concentrations plus control. Aliquots of 100 μL of these different drug dilutions were added to the appropriate microtiter wells already containing 100 μL of medium, resulting in the required final drug concentrations.
For adherent cells, the assay was terminated by the addition of cold TCA. Cells were fixed in situ by the gentle addition of 50 μL of cold 50% (w/v) TCA (final concentration, 10% TCA) and incubated for 60 minutes at 4° C. The supernatant was discarded, and the plates were washed five times with tap water and air dried. Sulforhodamine B (SRB) solution (100 μL) at 0.4% (w/v) in 1% acetic acid was added to each well, and plates were incubated for 10 minutes at room temperature. […] Bound stain was subsequently solubilized with 10 mM trizma base, and the absorbance was read on an automated plate reader at a wavelength of 515 nm. […] Using the seven absorbance measurements [time zero, (Tz), control growth, (C), and test growth in the presence of drug at the five concentration levels (Ti)], the percentage growth was calculated at each of the drug concentrations levels. Percentage growth inhibition was calculated as: [(Ti−Tz)/(C−Tz)]×100 for concentrations for which Ti>/=Tz [(Ti−Tz)/Tz]×100 for concentrations for which Ti<Tz.
Three dose response parameters were calculated for each experimental agent: GI50, TGI, and LC50. […] The drug concentration resulting in total growth inhibition (TGI) was calculated from Ti=Tz. […] Values were calculated for each of these three parameters if the level of activity was reached; however, if the effect was not reached or is exceeded, the value for that parameter was expressed as greater or less than the maximum or minimum concentration tested.

[4] = single dose 10 μM, leukemia, melanoma, and ovarian cancer

Question: Which “release of interleukin-2” value (interleukin-2 (IL-2)) does the source give for `COc1ccc([C@H](O)[C@@H](C)Oc2ccc(C3OC(c4ccc(O[C@H](C)[C@@H](O)c5ccc(OC)c(OC)c5)c(OC)c4)[C@H](C)[C@H]3C)cc2OC)cc1OC` (stereo partly drawn) [Compound 22] here?
Answer: inhibited

Question: For `COc1ccc([C@@H](O)[C@@H](C)Oc2ccc(C3OC(c4ccc(O[C@H](C)[C@H](O)c5ccc(OC)c(OC)c5)c(OC)c4)[C@H](C)[C@H]3C)cc2OC)cc1OC` (stereo partly drawn) [Compound 33], which IC50 (HIF-1 [1]) is on record?
Answer: 47 nM

Question: For `O=c1ccc2c(OCCCCc3ccccc3)c3ccoc3cc2o1` [Psora4, reference compound], which “release of interleukin-2” value (interleukin-2 (IL-2)) is on record?
Answer: inhibited

Question: Which results are given for `COc1ccc([C@@H](O)[C@@H](C)Oc2ccc(C3OC(c4ccc(O[C@H](C)[C@H](O)c5ccc(OC)c(OC)c5)c(OC)c4)[C@H](C)[C@H]3C)cc2OC)cc1OC` (stereo partly drawn) [manassantin A]?
Answer: Death Days (Athymic Nude mouse; Group 4, 100.00 mg/kg/dose IP): 0; Survivors/Total at day 15 (Athymic Nude mouse; Group 4, 100.00 mg/kg/dose IP): 0/1; Death Days (Athymic Nude mouse; Group 11, 12.50 mg/kg/dose IP): 0; Survivors/Total at day 15 (Athymic Nude mouse; Group 11, 12.50 mg/kg/dose IP): 0/1; Death Days (Athymic Nude mouse; Group 12, 1.56 mg/kg/dose IP): none; Survivors/Total at day 15 (Athymic Nude mouse; Group 12, 1.56 mg/kg/dose IP): 1/1; Death Days (Athymic Nude mouse; Group 13, 3.13 mg/kg/dose IP): none; Survivors/Total at day 15 (Athymic Nude mouse; Group 13, 3.13 mg/kg/dose IP): 1/1; Death Days (Athymic Nude mouse; Group 14, 6.25 mg/kg/dose IP): none; Survivors/Total at day 15 (Athymic Nude mouse; Group 14, 6.25 mg/kg/dose IP): 1/1; toxicity (in words) (Athymic Nude mouse; levels of 6.25, 3.13, and 1.56 mg/kg/dose IP): non-toxic; toxicity (in words) (Athymic Nude mouse; levels of 12.50 and 100.00 mg/kg/dose IP): resulted in death; toxicity outcome at first dose levels (Athymic Nude mouse; single IP injection of 400, 200 and 100 mg/kg, one mouse each): all 3 mice had to be sacrificed; release of interleukin-2 (interleukin-2 (IL-2)): inhibited; concentration significantly inhibiting VEGF induced by hypoxia (VEGF): higher than 10 nM; HIF-1α nuclear expression induced by CoCl2 (HIF-1α): inhibited; effect on iron chelator-induced HIF-1 activation (HIF-1 [2]): no significant effect; Solubility (Group 4, 200.0 mg/mL in 100% DMSO): soluble, no; Solubility (Group 11, 25.0 mg/mL in 100% DMSO): soluble, no; Solubility (Group 12, 3.125 mg/mL in 100% DMSO): soluble, no; Solubility (Group 13, 3.125 mg/mL in 100% DMSO): soluble, no; Solubility (Group 14, 3.125 mg/mL in 100% DMSO): soluble, no; cell survival rate (4T1 cells): ~70%; HIF-1α expression induced by CoCl2 (HIF-1α protein; 4T1 cells, 240 μM CoCl2 24 h, manassantin A 100 nM): inhibited; concentration significantly inhibiting hypoxia-induced nuclear expression of HIF-1α protein (HIF-1α protein; 4T1 cells, hypoxia 0.5% O2, 24 h): higher than 10 nM; expression of HIF-1 (HIF-1α protein; at the concentration 100 nM): completely inhibited; tumor cell growth, trial 1 ([3]; single dose 10 μM, 48 h, SRB): reduced the growth of all tumors tested; lethality, trial 1 [3, 4]: more than 50%; lethality, trial 2 [3, 4]: more than 50%; tumor cell growth, trial 2 ([3]; trial 2, 48 h, SRB): reduced the growth of all tumors tested
